Data: US20120214862A1, “MODULATION OF FACTOR 7 EXPRESSION” (ISIS Pharmaceuticals, Inc., priority 2009, published 2012)
In the oligonucleotide strings, read from the 5' end, every base follows the letter of its sugar. An asterisk marks phosphorothioate; unmarked linkages are phosphodiester. Other units and linkages are bracketed, terminal groups are in braces. A string of capitals states the bases alone. e = 2'-O-(2-methoxyethyl) (MOE); [5mC] = 5-methylcytosine; d = 2'-deoxy (DNA)

Legend:
Assay type in all cases: cell-based
human Factor 7 mRNA [1] = assay: Dose-dependent antisense inhibition of human Factor 7 in HepB3 cells, transfection with lipofectin; settings: lipofectin, HepB3 cells, 16 hours
Summary of the method: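 HepB3 cells (4,000/well) lipofectin-transfected with antisense oligonucleotide at 3.125 or 6.25 up to 100 nM for ~16 h. Factor 7 mRNA measured by real-time RT-PCR with primer probe set RTS 2927, adjusted to RIBOGREEN total RNA; expressed as percent inhibition versus untreated control cells.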

human Factor 7 mRNA [2] = assay: Dose-dependent antisense inhibition of human Factor 7 in HepB3 cells, transfection with electroporation
Description: (§1) The gapmers were also transfected via electroporation and their dose-dependent inhibition of human Factor 7 mRNA was measured. Cells were plated at a density of 20,000 cells per well and transfected via electroporation with 3.125 μM, 6.25 μM, 12.5 μM, 25 μM, 50 μM, and 100 μM concentrations of antisense oligonucleotide, as specified in Table 15. After a treatment period of approximately 16 hours, RNA was isolated from the cells and Factor 7 mRNA levels were measured by quantitative real-time PCR. Human Factor 7 primer probe set RTS 2927 was used to measure mRNA levels. Factor 7 mRNA levels were adjusted according to total RNA content, as measured by RIBOGREEN®. Results are presented as percent inhibition of Factor 7, relative to untreated control cells.
as §1, with “Cells were” for “The gapmers were also transfected via electroporation and their dose-dependent inhibition of human Factor 7 mRNA was measured. Cells were”, “in Table 16. After a” for “in Table 15. After a”, “cells and human Factor 7” for “cells and Factor 7”

human Factor 7 mRNA [3] = assay: Antisense inhibition of human Factor 7 mRNA in HepB3 cells, lipofectin, 50 nM, real-time RT-PCR; settings: HepB3 cells
Summary of the method: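 Percent inhibition of Factor 7 mRNA, relative to untreated control, comes from real-time RT-PCR with RIBOGREEN normalization, using primer probe set RTS 2927 in some runs. RNA was taken roughly 24 h after lipofectin delivery of 50 nM oligonucleotide into HepB3 cells.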

[4] = 3.125 μM, 16 hours (Example 7, Table 15)
[5] = 3.125 μM, 16 hours (Example 8, Table 16)
[6] = 6.25 μM, 16 hours (Example 7, Table 15)
[7] = 6.25 μM, 16 hours (Example 8, Table 16)
[8] = 12.5 μM, 16 hours (Example 7, Table 15)
[9] = 12.5 μM, 16 hours (Example 8, Table 16)
[10] = 25 μM, 16 hours (Example 7, Table 15)
[11] = 25 μM, 16 hours (Example 8, Table 16)
[12] = 50 μM, 16 hours (Example 7, Table 15)
[13] = 50 μM, 16 hours (Example 8, Table 16)
[14] = 100 μM, 16 hours (Example 7, Table 15)
[15] = 100 μM, 16 hours (Example 8, Table 16)
[16] = gapmers targeted to nucleobases 15188 to 15211 of SEQ ID NO: 1 (Table 13)

Row | Substance | percent inhibition of Factor 7 mRNA, relative to untreated control cells (human Factor 7 mRNA [1]; 3.125 nM) | percent inhibition of Factor 7 mRNA, relative to untreated control cells (human Factor 7 mRNA [1]; 12.5 nM) | percent inhibition of Factor 7 mRNA, relative to untreated control cells (human Factor 7 mRNA [1]; 25 nM) | percent inhibition of Factor 7 mRNA, relative to untreated control cells (human Factor 7 mRNA [1]; 50 nM) | percent inhibition of Factor 7 mRNA, relative to untreated control cells (human Factor 7 mRNA [1]; 100 nM) | percent inhibition of Factor 7 mRNA, relative to untreated control cells (human Factor 7 mRNA [1]) | percent inhibition of Factor 7 mRNA, relative to untreated control cells (human Factor 7 mRNA [2]; [4]) | percent inhibition of Factor 7 mRNA, relative to untreated control cells (human Factor 7 mRNA [2]; [5]) | percent inhibition of Factor 7 mRNA, relative to untreated control cells (human Factor 7 mRNA [2]; [6]) | percent inhibition of Factor 7 mRNA, relative to untreated control cells (human Factor 7 mRNA [2]; [7]) | percent inhibition of Factor 7 mRNA, relative to untreated control cells (human Factor 7 mRNA [2]; [8]) | percent inhibition of Factor 7 mRNA, relative to untreated control cells (human Factor 7 mRNA [2]; [9]) | percent inhibition of Factor 7 mRNA, relative to untreated control cells (human Factor 7 mRNA [2]; [10]) | percent inhibition of Factor 7 mRNA, relative to untreated control cells (human Factor 7 mRNA [2]; [11]) | percent inhibition of Factor 7 mRNA, relative to untreated control cells (human Factor 7 mRNA [2]; [12]) | percent inhibition of Factor 7 mRNA, relative to untreated control cells (human Factor 7 mRNA [2]; [13]) | percent inhibition of Factor 7 mRNA, relative to untreated control cells (human Factor 7 mRNA [2]; [14]) | percent inhibition of Factor 7 mRNA, relative to untreated control cells (human Factor 7 mRNA [2]; [15]) | % Inhibition of human Factor 7 mRNA levels (human Factor 7 mRNA [3]; [16]) | other results
1 | 422229 (antisense eA*eT*dG*d[5mC]*dA*dT*dG*dG*dT*dG*dA*dT*dG*d[5mC]*dT*eT*e[5mC]*eT*eG*eA) [compound 422229] | 21% | 53% | 72% | 86% | 92% | 32% | 21% | 30% | 30% | 45% | 33% | 67% | 44% | 79% | 65% | 90% | 77% | 92% | 71% | 
2 | 422150 (antisense eG*e[5mC]*eA*dT*dG*dG*dT*dG*dA*dT*dG*d[5mC]*dT*dT*d[5mC]*dT*dG*eA*eA*eT) [compound 422150] | 9% | 38% | 59% | 79% | 87% | 23% | 17% | 0% | 20% | 31% | 40% | 53% | 54% | 67% | 68% | 77% | 83% | 86% | 74% | 
3 | 422096 (antisense eA*eG*eA*e[5mC]*eA*dA*dT*dG*dG*dT*d[5mC]*dA*dG*dG*dG*e[5mC]*eT*eG*eG*eT) [compound 422096] | 17% | 43% | 60% | 68% | 82% | 23% | 26% |  | 30% |  | 46% |  | 50% |  | 62% |  | 85% |  |  | % Inhibition of human Factor 7 mRNA levels (human Factor 7 mRNA [3]; gapmers targeted to nucleobases 11830 to 11869 of SEQ ID NO: 1 (Table 9)): 76%
4 | 422183 (antisense eG*e[5mC]*eG*d[5mC]*d[5mC]*dA*d[5mC]*d[5mC]*d[5mC]*dG*d[5mC]*d[5mC]*dG*dG*d[5mC]*dT*d[5mC]*eT*eG*e[5mC]) [compound 422183] | 28% | 56% | 78% | 84% | 88% | 37% | 16% | 2% | 28% | 3% | 37% | 24% | 44% | 50% | 59% | 64% | 71% | 71% |  | % Inhibition of human Factor 7 mRNA levels (human Factor 7 mRNA [3]; gapmers targeted to nucleobases 13760 to 13789 of SEQ ID NO: 1 (Table 10)): 79%
5 | 422152 (antisense eA*eT*eG*d[5mC]*dA*dT*dG*dG*dT*dG*dA*dT*dG*d[5mC]*dT*dT*d[5mC]*eT*eG*eA) [compound 422152] | 18% | 47% | 67% | 83% | 89% | 29% | 14% |  | 22% |  | 32% |  | 44% |  | 65% |  | 76% |  | 74% | 
